Experimental data published in ChEMBL document CHEMBL2321750, “Structural permutation of potent cytotoxin, polytheonamide B: discovery of cytotoxic Peptide with altered activity” (ACS Med Chem Lett, 2013).

The compounds below were run on P388 (assay: Cytotoxicity against mouse P388 cells assessed as cell viability after 92 hrs by XTT assay). Details: P388, 92 h.
Type: functional, cell-based

SMILES | IC50 [nM]
CC[C@H](C)[C@H](NC(=O)[C@@H](CC(=O)NC)NC(=O)CNC(=O)[C@H](NC(=O)[C@@H](NC(=O)[C@@H](CC(=O)NC)NC(=O)[C@@H](NC(=O)[C@@H](CC(=O)NC)NC(=O)CNC(=O)CNC(=O)[C@H](C)NC(=O)[C@H](NC(=O)[C@H](CCC(=O)NC)NC(=O)[C@@H](CC(=O)NC)NC(=O)[C@@H](NC(=O)CNC(=O)[C@H](C)NC(=O)CNC(=O)[C@@H](NC(=O)[C@@H](CC(=O)NC)NC(=O)[C@H](C)N)C(C)(C)O)C(C)(C)C)C(C)(C)O)[C@@H](C)CC)C(C)(C)C)C(C)(C)O)C(=O)N[C@H](CC(=O)NC)C(=O)N[C@H](C(=O)N[C@H](CC(=O)NC)C(=O)N[C@@H](C)C(=O)N[C@H](CC(=O)NC)C(=O)N[C@H](C(=O)N[C@H](CO)C(=O)N[C@H](C(=O)N[C@H](CC(N)=O)C(=O)N[C@@H](Cc1cn(CCNS(=O)(=O)c2cccc3c(N(C)C)cccc23)nn1)C(=O)N[C@H](CC(N)=O)C(=O)N[C@@H](CCC(N)=O)C(=O)N[C@@H](C(=O)N[C@H](C(=O)O)[C@@H](C)O)[C@H](C)O)C(C)C)C(C)C)C(C)C | 100
CC[C@H](C)[C@H](NC(=O)[C@@H](CC(=O)NC)NC(=O)CNC(=O)[C@H](NC(=O)[C@@H](NC(=O)[C@@H](CC(=O)NC)NC(=O)[C@@H](NC(=O)[C@@H](CC(=O)NC)NC(=O)CNC(=O)CNC(=O)[C@H](C)NC(=O)[C@H](NC(=O)[C@H](CCC(=O)NC)NC(=O)[C@@H](CC(=O)NC)NC(=O)[C@@H](NC(=O)CNC(=O)[C@H](C)NC(=O)CNC(=O)[C@@H](NC(=O)[C@@H](CC(=O)NC)NC(=O)[C@H](C)NC(=O)[C@H](N)C(C)(C)C)C(C)(C)O)C(C)(C)C)C(C)(C)O)[C@@H](C)CC)C(C)(C)C)C(C)(C)O)C(=O)N[C@H](CC(=O)NC)C(=O)N[C@H](C(=O)N[C@H](CC(=O)NC)C(=O)N[C@@H](C)C(=O)N[C@H](CC(=O)NC)C(=O)N[C@H](C(=O)N[C@H](CO)C(=O)N[C@H](C(=O)N[C@H](CC(N)=O)C(=O)N[C@@H](Cc1cn(CCNS(=O)(=O)c2cccc3c(N(C)C)cccc23)nn1)C(=O)N[C@H](CC(N)=O)C(=O)N[C@@H](CCC(N)=O)C(=O)N[C@@H](C(=O)N[C@H](C(=O)O)[C@@H](C)O)[C@H](C)O)C(C)C)C(C)C)C(C)C | 81
CC[C@H](C)[C@H](NC(=O)[C@@H](CC(=O)NC)NC(=O)CNC(=O)[C@H](NC(=O)[C@@H](NC(=O)[C@@H](CC(=O)NC)NC(=O)[C@@H](NC(=O)[C@@H](CC(=O)NC)NC(=O)CNC(=O)CNC(=O)[C@H](C)NC(=O)[C@H](NC(=O)[C@H](CCC(=O)NC)NC(=O)[C@@H](CC(=O)NC)NC(=O)[C@@H](NC(=O)CNC(=O)[C@H](C)NC(=O)CNC(=O)[C@@H](NC(=O)[C@@H](CC(=O)NC)NC(=O)[C@H](C)NC(=O)[C@H](NC(=O)[C@H](C)NC(=O)CNC(=O)[C@H](C)N)C(C)(C)C)C(C)(C)O)C(C)(C)C)C(C)(C)O)[C@@H](C)CC)C(C)(C)C)C(C)(C)O)C(=O)N[C@H](CC(=O)NC)C(=O)N[C@H](C(=O)N[C@H](CC(=O)NC)C(=O)N[C@@H](C)C(=O)N[C@H](CC(=O)NC)C(=O)N[C@H](C(=O)N[C@H](CO)C(=O)N[C@H](C(=O)N[C@H](CC(N)=O)C(=O)N[C@@H](Cc1cn(CCNS(=O)(=O)c2cccc3c(N(C)C)cccc23)nn1)C(=O)N[C@H](CC(N)=O)C(=O)N[C@@H](CCC(N)=O)C(=O)N[C@@H](C(=O)N[C@H](C(=O)O)[C@@H](C)O)[C@H](C)O)C(C)C)C(C)C)C(C)C | > 420
CC[C@H](C)[C@H](NC(=O)[C@@H](CC(=O)NC)NC(=O)CNC(=O)[C@H](NC(=O)[C@@H](NC(=O)[C@@H](CC(=O)NC)NC(=O)[C@@H](NC(=O)[C@@H](CC(=O)NC)NC(=O)CNC(=O)CNC(=O)[C@H](C)NC(=O)[C@H](NC(=O)[C@H](CCC(=O)NC)NC(=O)[C@H](N)CC(=O)NC)C(C)(C)O)[C@@H](C)CC)C(C)(C)C)C(C)(C)O)C(=O)N[C@H](CC(=O)NC)C(=O)N[C@H](C(=O)N[C@H](CC(=O)NC)C(=O)N[C@@H](C)C(=O)N[C@H](CC(=O)NC)C(=O)N[C@H](C(=O)N[C@H](CO)C(=O)N[C@H](C(=O)N[C@H](CC(N)=O)C(=O)N[C@@H](Cc1cn(CCNS(=O)(=O)c2cccc3c(N(C)C)cccc23)nn1)C(=O)N[C@H](CC(N)=O)C(=O)N[C@@H](CCC(N)=O)C(=O)N[C@@H](C(=O)N[C@H](C(=O)O)[C@@H](C)O)[C@H](C)O)C(C)C)C(C)C)C(C)C | > 250
CC[C@H](C)[C@H](NC(=O)[C@@H](CC(=O)NC)NC(=O)CNC(=O)[C@H](NC(=O)[C@@H](NC(=O)[C@@H](CC(=O)NC)NC(=O)[C@@H](NC(=O)[C@@H](CC(=O)NC)NC(=O)CNC(=O)CNC(=O)[C@H](C)NC(=O)[C@H](NC(=O)[C@H](CCC(=O)NC)NC(=O)[C@@H](CC(=O)NC)NC(=O)[C@@H](NC(=O)CN)C(C)(C)C)C(C)(C)O)[C@@H](C)CC)C(C)(C)C)C(C)(C)O)C(=O)N[C@H](CC(=O)NC)C(=O)N[C@H](C(=O)N[C@H](CC(=O)NC)C(=O)N[C@@H](C)C(=O)N[C@H](CC(=O)NC)C(=O)N[C@H](C(=O)N[C@H](CO)C(=O)N[C@H](C(=O)N[C@H](CC(N)=O)C(=O)N[C@@H](Cc1cn(CCNS(=O)(=O)c2cccc3c(N(C)C)cccc23)nn1)C(=O)N[C@H](CC(N)=O)C(=O)N[C@@H](CCC(N)=O)C(=O)N[C@@H](C(=O)N[C@H](C(=O)O)[C@@H](C)O)[C@H](C)O)C(C)C)C(C)C)C(C)C | > 410
CC[C@H](C)[C@H](NC(=O)[C@@H](CC(=O)NC)NC(=O)CNC(=O)[C@H](NC(=O)[C@@H](NC(=O)[C@@H](CC(=O)NC)NC(=O)[C@@H](NC(=O)[C@@H](CC(=O)NC)NC(=O)CNC(=O)CNC(=O)[C@H](C)NC(=O)[C@H](NC(=O)[C@@H](N)CCC(=O)NC)C(C)(C)O)[C@@H](C)CC)C(C)(C)C)C(C)(C)O)C(=O)N[C@H](CC(=O)NC)C(=O)N[C@H](C(=O)N[C@H](CC(=O)NC)C(=O)N[C@@H](C)C(=O)N[C@H](CC(=O)NC)C(=O)N[C@H](C(=O)N[C@H](CO)C(=O)N[C@H](C(=O)N[C@H](CC(N)=O)C(=O)N[C@@H](Cc1cn(CCNS(=O)(=O)c2cccc3c(N(C)C)cccc23)nn1)C(=O)N[C@H](CC(N)=O)C(=O)N[C@@H](CCC(N)=O)C(=O)N[C@@H](C(=O)N[C@H](C(=O)O)[C@@H](C)O)[C@H](C)O)C(C)C)C(C)C)C(C)C | > 420
CC[C@H](C)[C@H](NC(=O)[C@@H](CC(=O)NC)NC(=O)CNC(=O)[C@H](NC(=O)[C@@H](NC(=O)[C@@H](CC(=O)NC)NC(=O)[C@@H](NC(=O)[C@@H](CC(=O)NC)NC(=O)CNC(=O)CNC(=O)[C@H](C)NC(=O)[C@H](NC(=O)[C@H](CCC(=O)NC)NC(=O)[C@@H](CC(=O)NC)NC(=O)[C@@H](NC(=O)CNC(=O)[C@H](C)NC(=O)CNC(=O)[C@@H](N)C(C)(C)O)C(C)(C)C)C(C)(C)O)[C@@H](C)CC)C(C)(C)C)C(C)(C)O)C(=O)N[C@H](CC(=O)NC)C(=O)N[C@H](C(=O)N[C@H](CC(=O)NC)C(=O)N[C@@H](C)C(=O)N[C@H](CC(=O)NC)C(=O)N[C@H](C(=O)N[C@H](CO)C(=O)N[C@H](C(=O)N[C@H](CC(N)=O)C(=O)N[C@@H](Cc1cn(CCNS(=O)(=O)c2cccc3c(N(C)C)cccc23)nn1)C(=O)N[C@H](CC(N)=O)C(=O)N[C@@H](CCC(N)=O)C(=O)N[C@@H](C(=O)N[C@H](C(=O)O)[C@@H](C)O)[C@H](C)O)C(C)C)C(C)C)C(C)C | 140
CC[C@H](C)[C@H](NC(=O)[C@@H](CC(=O)NC)NC(=O)CNC(=O)[C@H](NC(=O)[C@@H](NC(=O)[C@@H](CC(=O)NC)NC(=O)[C@@H](NC(=O)[C@@H](CC(=O)NC)NC(=O)CNC(=O)CNC(=O)[C@H](C)NC(=O)[C@H](NC(=O)[C@H](CCC(=O)NC)NC(=O)[C@@H](CC(=O)NC)NC(=O)[C@@H](NC(=O)CNC(=O)[C@H](C)N)C(C)(C)C)C(C)(C)O)[C@@H](C)CC)C(C)(C)C)C(C)(C)O)C(=O)N[C@H](CC(=O)NC)C(=O)N[C@H](C(=O)N[C@H](CC(=O)NC)C(=O)N[C@@H](C)C(=O)N[C@H](CC(=O)NC)C(=O)N[C@H](C(=O)N[C@H](CO)C(=O)N[C@H](C(=O)N[C@H](CC(N)=O)C(=O)N[C@@H](Cc1cn(CCNS(=O)(=O)c2cccc3c(N(C)C)cccc23)nn1)C(=O)N[C@H](CC(N)=O)C(=O)N[C@@H](CCC(N)=O)C(=O)N[C@@H](C(=O)N[C@H](C(=O)O)[C@@H](C)O)[C@H](C)O)C(C)C)C(C)C)C(C)C | 190
CC[C@H](C)[C@H](NC(=O)[C@@H](CC(=O)NC)NC(=O)CNC(=O)[C@H](NC(=O)[C@@H](NC(=O)[C@@H](CC(=O)NC)NC(=O)[C@@H](NC(=O)[C@@H](CC(=O)NC)NC(=O)CNC(=O)CNC(=O)[C@H](C)NC(=O)[C@H](NC(=O)[C@H](CCC(=O)NC)NC(=O)[C@@H](CC(=O)NC)NC(=O)[C@@H](N)C(C)(C)C)C(C)(C)O)[C@@H](C)CC)C(C)(C)C)C(C)(C)O)C(=O)N[C@H](CC(=O)NC)C(=O)N[C@H](C(=O)N[C@H](CC(=O)NC)C(=O)N[C@@H](C)C(=O)N[C@H](CC(=O)NC)C(=O)N[C@H](C(=O)N[C@H](CO)C(=O)N[C@H](C(=O)N[C@H](CC(N)=O)C(=O)N[C@@H](Cc1cn(CCNS(=O)(=O)c2cccc3c(N(C)C)cccc23)nn1)C(=O)N[C@H](CC(N)=O)C(=O)N[C@@H](CCC(N)=O)C(=O)N[C@@H](C(=O)N[C@H](C(=O)O)[C@@H](C)O)[C@H](C)O)C(C)C)C(C)C)C(C)C | 390
CC[C@H](C)[C@H](NC(=O)[C@@H](CC(=O)NC)NC(=O)CNC(=O)[C@H](NC(=O)[C@@H](NC(=O)[C@@H](CC(=O)NC)NC(=O)[C@@H](NC(=O)[C@@H](CC(=O)NC)NC(=O)CNC(=O)CNC(=O)[C@H](C)NC(=O)[C@H](NC(=O)[C@H](CCC(=O)NC)NC(=O)[C@@H](CC(=O)NC)NC(=O)[C@@H](NC(=O)CNC(=O)[C@H](C)NC(=O)CNC(=O)[C@@H](NC(=O)[C@@H](CC(=O)NC)NC(=O)[C@H](C)NC(=O)[C@H](NC(=O)[C@H](C)NC(=O)CN)C(C)(C)C)C(C)(C)O)C(C)(C)C)C(C)(C)O)[C@@H](C)CC)C(C)(C)C)C(C)(C)O)C(=O)N[C@H](CC(=O)NC)C(=O)N[C@H](C(=O)N[C@H](CC(=O)NC)C(=O)N[C@@H](C)C(=O)N[C@H](CC(=O)NC)C(=O)N[C@H](C(=O)N[C@H](CO)C(=O)N[C@H](C(=O)N[C@H](CC(N)=O)C(=O)N[C@@H](Cc1cn(CCNS(=O)(=O)c2cccc3c(N(C)C)cccc23)nn1)C(=O)N[C@H](CC(N)=O)C(=O)N[C@@H](CCC(N)=O)C(=O)N[C@@H](C(=O)N[C@H](C(=O)O)[C@@H](C)O)[C@H](C)O)C(C)C)C(C)C)C(C)C | > 420
